Laboratory results as given in patent US20080119548A1, “Control Of Feeding Behavior By Changing Neuronal Energy Balance” (priority 2004, published 2008).

Key:
[1] = test system: BALB/c male mice; assay: Measurement of food intake after i.c.v. or i.p. injection; type: in vivo
Experimental: Male BALB/c mice (7-9 weeks) were purchased from Charles River Laboratories (and housed in a controlled-light (12 hr light/12 hr dark cycle) environment (lights on 0200-1400 h) and allowed ad libitum access to standard laboratory chow and water. For fasting, food was withdrawn from cage at the onset of the dark cycle for 24 hr, but ad libitum access to water was allowed.
(§1) Mice were implanted with permanent stainless steel cannulae into the lateral ventricle of the brain 0.6 mm caudal to Bregma, 1.2 mm lateral to the midline, and sunk to a depth of 2.2 mm below the surface of the skull. Implanted mice were housed in individual cages and utilized for i.c.v. and i.p. injections as indicated. C75 dissolved in RPMI1640 (Gibco-BRL), AICAR (Toronto Research Chemicals Inc) or compound C (46) (FASgen, Inc.) in saline was injected i.c.v., such that desired dose could be administered in a volume of 2.5 μl, while control groups received vehicle only. Injections were done immediately preceding dark onset and food intake measurements were taken at 1 hr (0-1 hr interval), 3 hr (1-3 hr interval), and 24 hr (3-24 hr interval) after dark onset. C75 i.p./AICAR i.c.v. treatment groups were i.p. injected with 5 mg/kg bodyweight C75 dissolved in […] of glucose-free RPMI 1 hr before the dark onset, followed by 3 μg/2.5 μl saline i.c.v. AICAR immediately preceding the dark onset. Control groups received 200 μl of glucose free RPMI 1 hr before lights off and 2.5 μl of saline. Administration of i.p. compound C (10 or 30 mg/kg bodyweight) or C75 (10 mg/kg bodyweight) was followed by food intake measurement at the same times indicated.

[2] = test system: liver AMPKα; assay: Western blot of phosphorylated AMPKα in liver; type: in vivo, mice; conditions: C75 i.p.
Experimental: Hypothalami were dissected using as landmarks the optic chiasm rostrally, and the mammillary bodies caudally to a depth of 2 mm. Dissected hypothalamic and liver tissue were immediately frozen in liquid nitrogen. Tissues were homogenized in 200 μl of lysis buffer (50 mM Tris-HCl, pH 7.5, 250 mM sucrose, 5 mM sodium pyrophosphate, 50 mM NaF, 1 mM EDTA, 1 mM EGTA, 1 mM DTT, 0.5 mM PMSF, 0.1 mM benzamidine, 50 μg/ml leupeptin, 50 μg/ml soybean trypsin inhibitor). SDS detergent was added to a final 0.2%, and lysates were boiled for 5 min. After the supernatant was harvested, protein concentration was determined by BCA kit (Bio Rad). Phosphorylation of AMPKα was determined on a 4-15% gradient SDS-polyacrylamide gel using anti-phospho-AMPKα (α1 and α2, Thr172) antibody (1:1000, Cell Signaling). Anti-AMPKαt antibody (α1 and α2, 1:1000, Cell Signaling) was used as a loading control.

[3] = test system: pCREB; assay: Immunohistochemistry of pCREB in the arcuate nucleus; type: in vivo, mice; conditions: C75-treated (24 hr) mice
Experimental: Free-floating sections were blocked in PBS containing 5% goat serum, 0.1% BSA, 0.05% Triton-X100, 1 mM NaF for 1 hr at room temperature and incubated with anti-phospho-AMPKα (α1 and α2) antibody (1:100) or anti-phospho-CREB antibody (1:500, Cell Signaling) in PBS containing 1% goat serum, 0.1% BSA, 0.05% Triton-X100, 1 mM NaF overnight at 4° C. Signal was visualized by Vectastain ABC kit (Vector). Images of in situ hybridization and immunohistochemistry were visualized using an Axiocam HRc digital camera (Carl Zeiss) and images were acquired using Improvision Openlab software, and quantified by NIH Image program (Macro).

[4] = test system: pAMPKα; assay: Immunohistochemistry of pAMPKα in the arcuate nucleus; type: in vivo; conditions: C75-treated (24 hr) mice
Experimental: Free-floating sections were blocked in PBS containing 5% goat serum, 0.1% BSA, 0.05% Triton-X100, 1 mM NaF for 1 hr at room temperature and incubated with anti-phospho-AMPKα (α1 and α2) antibody (1:100) or anti-phospho-CREB antibody (1:500, Cell Signaling) in PBS containing 1% goat serum, 0.1% BSA, 0.05% Triton-X100, 1 mM NaF overnight at 4° C. Signal was visualized by Vectastain ABC kit (Vector).
Images of in situ hybridization and immunohistochemistry were visualized using an Axiocam HRc digital camera (Carl Zeiss) and images were acquired using Improvision Openlab software, and quantified by NIH Image program (Macro).

[5] = Changes in bodyweight 24 hr after i.c.v. injection; type: in vivo, mice; conditions: C75 10 μg i.c.v.
Source text: as §1, with “(d) Changes in bodyweight 24 hr after i.c.v. injection of C75, AICAR or compound C (n=4-10). Mice” for “Mice”, “[…],” for “C (46) (FASgen,”, “[…].” for “C75 i.p./AICAR i.c.v.”

With `C=C1C(=O)OC(CCCCCCCC)C1C(=O)O` (stereo not shown) [C75] the “reduction in food intake over 24 hr” value ([1]; C75 5 mg i.c.v., p<0.05) was 20.3%, the “food intake at 1 hr, % of control (RPMI/saline)” value ([1]; C75 5 mg/kg bodyweight i.p. 1 hr before dark onset, saline i.c.v., p<0.01) was 37.5 % of control and the “reduction in food intake over 24 hr” value ([1]; C75 10 mg i.c.v., p<0.01) was 37.7%. For the same compound, the “food intake, % of control” value ([1]; C75 10 mg/kg bodyweight i.p., 0-1 hr) was 8.3 % of control, the “food intake, % of control” value ([1]; C75 10 mg/kg bodyweight i.p., 1-3 hr) was 23.3 % of control and the “food intake, % of control” value ([1]; C75 10 mg/kg bodyweight i.p., 3-24 hr) was 30.1 % of control. For the same compound, the “total 24 hr-food consumption, % of control” value ([1]; C75 10 mg/kg bodyweight i.p., total 24 hr, p<0.001) was 26.3 % of control, the “food intake during the 1-3 and 3-24 hr time intervals” value ([1]; C75 i.c.v., dose-dependent) was “significantly reduced food intake” and the “pAMPKα levels in the liver” value ([2]; 30 min after administration) was “little effect”. For the same compound, the “pAMPKα levels in the liver” value ([2]; 3 hr) was “increased pAMPKα levels”, the “level of pCREB in the arcuate nucleus, % of control” value [3] was 39 % of control and the “pAMPKa-immunoreactivity in the arcuate nucleus, % of control” value [4] was 12 % of control. For the same compound, the bodyweight [5] was “reduction in body weight”.
